Experiments:
[1] = target: T1, EIF2AK3 (PERK) catalytic domain (Homo sapiens, UniProt Q9NZJ5); test: In vitro inhibition of PERK enzyme activity (isolated), TR-FRET kinase assay; assay type: biochemical; details: 1.5 μM ATP, 45 min
T1 construct: EIF2AK3 (PERK) catalytic domain (amino acids 536-1116); purchased Invitrogen, Carlsbad, CA
T1 sequence (Q9NZJ5 536-1116): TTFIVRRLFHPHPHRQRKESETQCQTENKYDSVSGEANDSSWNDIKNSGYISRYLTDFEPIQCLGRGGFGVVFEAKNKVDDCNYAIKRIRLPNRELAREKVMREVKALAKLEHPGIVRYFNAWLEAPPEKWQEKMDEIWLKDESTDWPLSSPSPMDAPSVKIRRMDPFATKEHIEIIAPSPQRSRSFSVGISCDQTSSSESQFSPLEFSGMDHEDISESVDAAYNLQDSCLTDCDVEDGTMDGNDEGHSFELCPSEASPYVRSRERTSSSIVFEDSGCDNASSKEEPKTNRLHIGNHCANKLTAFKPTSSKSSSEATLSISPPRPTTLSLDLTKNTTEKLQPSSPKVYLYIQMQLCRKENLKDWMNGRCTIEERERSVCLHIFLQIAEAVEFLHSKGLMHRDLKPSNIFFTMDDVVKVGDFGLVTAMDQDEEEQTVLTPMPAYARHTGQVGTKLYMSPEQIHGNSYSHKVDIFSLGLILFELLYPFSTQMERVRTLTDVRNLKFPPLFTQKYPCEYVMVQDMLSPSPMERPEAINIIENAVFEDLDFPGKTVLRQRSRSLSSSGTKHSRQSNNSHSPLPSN
Procedure: (§1) Recombinant human EIF2AK2 (PKR) catalytic domain (amino acids 252-551), EIF2AK3 (PERK) catalytic domain (amino acids 536-1116), GFP-eIF2α substrate, and Terbium-labelled phospho-eIF2a antibody is obtained (Invitrogen, Carlsbad, CA). Express and purify HIS-SUMO-GCN2 catalytic domain (amino acids 584-1019) from E. coli. Perform TR-FRET kinase assays in the absence or presence of inhibitors in a reaction buffer consisting of 50 mM HEPES, pH 7.5, 10 mM MgCl2, 1.0 mM EGTA, and 0.01% Brij-35, and 100-200 nM GFP-eIF2α substrate. […] Add test compound, initiate the reaction by addition of enzyme, and incubate at room temperature for 45 minutes. Stop the reaction by addition of EDTA to a final concentration of 10 mM, add Terbium-labelled phospho-eIF2α antibody at a final concentration of 2 nM, and incubate for 90 minutes. Monitor the resulting fluorescence in an EnVison® Multilabel reader (PerkinElmer, Waltham, MA). Determine TR-FRET ratios and the resulting IC50 values using a 4-parameter nonlinear logistic equation as shown: Y=(A+((B−A)/(1+((C/x)^D)))) where, Y=% specific inhibition, A=Bottom of the curve, B=Top of the curve, C=absolute IC50 (concentration causing 50% inhibition), and D=hill slope.

[2] = target: T2, EIF2AK2 (PKR) catalytic domain (Homo sapiens, UniProt P19525); test: TR-FRET kinase assay, PKR; assay type: biochemical; details: 2.5 μM ATP, 45 min; read-out: Enzyme IC50 PKR
T2 construct: Recombinant human EIF2AK2 (PKR) catalytic domain (amino acids 252-551); purchased Invitrogen, Carlsbad, CA
T2 sequence (P19525 252-551): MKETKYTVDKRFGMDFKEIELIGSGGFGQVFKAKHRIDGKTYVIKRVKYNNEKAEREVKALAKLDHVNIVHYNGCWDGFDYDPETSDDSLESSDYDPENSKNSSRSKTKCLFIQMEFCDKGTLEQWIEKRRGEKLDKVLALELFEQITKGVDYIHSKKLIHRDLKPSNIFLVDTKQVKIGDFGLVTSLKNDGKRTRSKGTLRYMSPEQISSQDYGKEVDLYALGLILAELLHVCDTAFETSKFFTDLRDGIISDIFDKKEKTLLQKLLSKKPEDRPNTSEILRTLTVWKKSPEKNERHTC
Procedure: as §1

BxPC-3 cells = test: In vivo inhibition of pancreatic cancer (mouse xenograft model); set-up: species or system female athymic nude mice
Procedure: Implant female athymic nude mice (Harlan Laboratories) subcutaneously with 5×10^6 BxPC-3 cells containing matrigel on the right flank and monitor tumor growth with calipers. Initiate compound dosing when tumors reach ˜250 mm^3 and dose mice twice per day by oral gavage (8 animals per group) for 28 days. Formulate compounds in 10% Acacia containing 0.05% anti-foam or 20% Captisol in 25 mM NaPO4 buffer pH […] the compounds of Examples 5 and 9, respectively. Treat control animals with Acacia vehicle alone. Estimate tumor volumes using the formula l×w^2×(π/6), where l is the larger measured diameter and w is the smaller perpendicular diameter. Calculate percent delta T/C using the formula 100×[(T−T0)/(C−C0)] and percent regression using the formula 100×[(T−T0)/T0], where T and C are mean tumor volumes in the treated and control groups, respectively. T0 and C0 are the corresponding baseline mean tumor volumes. Convert percent delta T/C to percent delta tumor growth inhibition (TGI) using the equation, 100−percent delta T/C. For statistical analysis, transform tumor volume data to log10 scale to equalize variance across time and treatment groups. Analyze the log10 volume data with a two-way repeated measures analysis of variance (Spatial Power correlation model) by time and treatment using the MIXED procedures in the SAS software package (Version 9.3). Compare treated groups to the control group at each time point.

[3] = target: T3, PERK in GripTite 293 cells expressing GFP-eIF2α (Homo sapiens, UniProt Q9NZJ5); test: In vitro inhibition of PERK enzyme activity (whole cell), tunicamycin-induced phospho-eIF2α TR-FRET; assay type: cell-based; details: 1 h pre-treatment, Tunicamycin 1 μM 2 h
T3 construct: Add Tunicamycin (1 μM) to induce PERK activity; endogenous in cells; host or cells: GripTite 293 cells expressing GFP-eIF2α
T3 sequence (Q9NZJ5 30-1116): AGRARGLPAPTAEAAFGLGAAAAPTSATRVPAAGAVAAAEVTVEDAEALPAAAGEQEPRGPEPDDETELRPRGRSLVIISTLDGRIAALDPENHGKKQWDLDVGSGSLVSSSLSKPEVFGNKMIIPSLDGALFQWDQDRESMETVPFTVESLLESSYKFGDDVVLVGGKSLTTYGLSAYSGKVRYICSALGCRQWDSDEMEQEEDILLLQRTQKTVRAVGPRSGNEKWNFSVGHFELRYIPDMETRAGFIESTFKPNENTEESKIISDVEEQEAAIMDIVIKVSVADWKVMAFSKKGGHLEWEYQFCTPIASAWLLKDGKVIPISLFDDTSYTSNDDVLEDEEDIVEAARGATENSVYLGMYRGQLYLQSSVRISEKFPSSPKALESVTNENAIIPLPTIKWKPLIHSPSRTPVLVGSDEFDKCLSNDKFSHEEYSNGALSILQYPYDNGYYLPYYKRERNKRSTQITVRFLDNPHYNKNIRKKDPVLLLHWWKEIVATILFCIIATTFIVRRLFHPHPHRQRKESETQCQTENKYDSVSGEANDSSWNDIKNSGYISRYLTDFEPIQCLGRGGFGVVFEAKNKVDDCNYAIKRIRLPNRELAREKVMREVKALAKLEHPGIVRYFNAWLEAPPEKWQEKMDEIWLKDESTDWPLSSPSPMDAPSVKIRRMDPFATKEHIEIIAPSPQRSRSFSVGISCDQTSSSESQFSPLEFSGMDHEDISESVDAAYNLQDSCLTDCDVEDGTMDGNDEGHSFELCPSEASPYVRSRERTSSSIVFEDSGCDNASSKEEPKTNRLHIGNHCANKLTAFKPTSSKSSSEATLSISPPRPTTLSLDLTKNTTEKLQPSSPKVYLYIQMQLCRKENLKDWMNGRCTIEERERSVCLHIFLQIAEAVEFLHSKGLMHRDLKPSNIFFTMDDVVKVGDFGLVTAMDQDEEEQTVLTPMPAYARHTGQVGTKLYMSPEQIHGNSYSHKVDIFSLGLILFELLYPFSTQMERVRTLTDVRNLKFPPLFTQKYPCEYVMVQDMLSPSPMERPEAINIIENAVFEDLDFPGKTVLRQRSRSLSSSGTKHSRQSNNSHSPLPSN
Procedure: Seed GripTite™ 293 cells (Invitrogen, Carlsbad, CA) expressing GFP-eIF2α at 10,000 cells per well in 384-well plates and allow to attach overnight. Pre-treat cells with test compounds for 1 hour. Add Tunicamycin (1 μM) to induce PERK activity and incubate the plates at 37° C. for 2 hours. Remove the culture media and lyse the cells in buffer consisting of 20 mM Tris-HCl, pH 7.5, 150 mM NaCl, 5 mM EDTA, 1% NP-40, 5 mM NaF, Protease inhibitors (Sigma, St. Louis, MO), Phosphatase inhibitors (Sigma, St. Louis, MO), and 2 nM Terbium-labelled anti-phospho-eIF2 antibody (Invitrogen, Carlsbad, CA). Incubate the cell lysates for 2 hours in the dark at room temperature and monitor fluorescence in an EnVison® Multilabel reader (PerkinElmer, Waltham, MA). Determine TR-FRET ratios and the resulting IC50 values from the fitted inhibition curves using un-induced (100% inhibition) and induced (0% inhibition) wells as controls.

[4] = 30 mg/kg PO BID group, day 21 post-implant (before start of treatment)
[5] = 30 mg/kg PO BID group, day 24 post-implant (before start of treatment)
[6] = 30 mg/kg PO BID group, day 32 post-implant (before start of treatment)
[7] = 30 mg/kg PO BID group, day 35 post-implant (before start of treatment)
[8] = 30 mg/kg PO BID group, day 39 post-implant (before start of treatment)
[9] = 30 mg/kg PO BID group, day 47 post-implant (before start of treatment)
[10] = 30 mg/kg PO BID group, day 52 post-implant (day of randomization and start of treatment)
[11] = 30 mg/kg PO BID, day 60 post-implant
[12] = 30 mg/kg PO BID, day 67 post-implant
[13] = 30 mg/kg PO BID, day 72 post-implant
[14] = 30 mg/kg PO BID, day 74 post-implant
[15] = 30 mg/kg PO BID, day 76 post-implant
[16] = 30 mg/kg PO BID, day 79 post-implant

SMILES	IC50 [1] [nM]	IC50 [2] [nM]	Mean tumor volume (BxPC-3 cells; [4]) [mm^3]	Mean tumor volume (BxPC-3 cells; [5]) [mm^3]	Mean tumor volume (BxPC-3 cells; [6]) [mm^3]	Mean tumor volume (BxPC-3 cells; [7]) [mm^3]	Mean tumor volume (BxPC-3 cells; [8]) [mm^3]	Mean tumor volume (BxPC-3 cells; [9]) [mm^3]	Mean tumor volume (BxPC-3 cells; [10]) [mm^3]	Mean tumor volume (BxPC-3 cells; [11]) [mm^3]	T/C (BxPC-3 cells; [11]) [%]	TGI (Tumor Growth Inhibition) (BxPC-3 cells; [11]) [%]	Mean tumor volume (BxPC-3 cells; [12]) [mm^3]	T/C (BxPC-3 cells; [12]) [%]	TGI (Tumor Growth Inhibition) (BxPC-3 cells; [12]) [%]	Mean tumor volume (BxPC-3 cells; [13]) [mm^3]	T/C (BxPC-3 cells; [13]) [%]	TGI (Tumor Growth Inhibition) (BxPC-3 cells; [13]) [%]	Mean tumor volume (BxPC-3 cells; [14]) [mm^3]	T/C (BxPC-3 cells; [14]) [%]	further results
Cc1cc(NC(=O)[C@H](O)c2cc(F)cc(F)c2)ccc1-c1cnc(N)c(C(=O)NC(C)C)c1 [Example 1, 2-amino-5-[4-[[(2R)-2-(3,5-difluorophenyl)-2-hydroxy-acetyl]amino]-2-methyl-phenyl]-N-isopropyl-pyridine-3-carboxamide]	2.2 ± 1.2	> 20000	–	–	–	–	–	–	–	–	–	–	–	–	–	–	–	–	–	–	–
CNC(=O)c1nc(-c2ccc(NC(=O)[C@H](O)c3cc(F)cc(F)c3)cc2C)cnc1N [Example 5, 3-amino-6-[4-[[(2R)-2-(3,5-difluorophenyl)-2-hydroxy-acetyl]amino]-2-methyl-phenyl]-N-methyl-pyrazine-2-carboxamide]	–	> 20000	123.9	132.8	143.4	174.6	183.8	213.7	252.0	311.8	71.5	28.5	387.8	55.8	44.2	435.0	52.7	47.3	487.5	50.7	TGI (Tumor Growth Inhibition) (BxPC-3 cells; [14]): 49.3%; Mean tumor volume (BxPC-3 cells; [15]): 528.8 mm^3; T/C (BxPC-3 cells; [15]): 54.5%; TGI (Tumor Growth Inhibition) (BxPC-3 cells; [15]): 45.5%; Mean tumor volume (BxPC-3 cells; [16]): 593.2 mm^3; T/C (BxPC-3 cells; [16]): 47.7%; TGI (Tumor Growth Inhibition) (BxPC-3 cells; [16]): 52.3%
Cc1cc(NC(=O)[C@H](O)c2cccc(F)c2)ccc1-c1cn(C)c2ncnc(N)c12 [Example 9, (2R)—N-[4-(4-amino-7-methyl-pyrrolo[2,3-d]pyrimidin-5-yl)-3-methyl-phenyl]-2-(3-fluorophenyl)-2-hydroxy-acetamide]	2.4 ± 1	–	111.9	134.3	153.7	162.6	167.1	196.4	244.2	284.8	40.8	59.2	317.2	27.4	72.6	380.5	37.3	62.7	418.3	36.0	IC50 [3]: 28 ± 11 nM; TGI (Tumor Growth Inhibition) (BxPC-3 cells; [14]): 64.0%; Mean tumor volume (BxPC-3 cells; [15]): 480.4 mm^3; T/C (BxPC-3 cells; [15]): 45.1%; TGI (Tumor Growth Inhibition) (BxPC-3 cells; [15]): 54.9%; Mean tumor volume (BxPC-3 cells; [16]): 541.6 mm^3; T/C (BxPC-3 cells; [16]): 40.5%; TGI (Tumor Growth Inhibition) (BxPC-3 cells; [16]): 59.5%
